Data as given in PubChem BioAssay AID1421 (Emory University Molecular Libraries Screening Center, 2008).
Active and inactive are the calls of the source. The rule behind the calls is not given here.

These compounds were tested against Prostaglandin E2 receptor EP2 subtype (Homo sapiens) (UniProt P43116) (assay: compounds shifting PGE2 potency at EP2 – cell-based, human EP2, PGE2 EC50 shift, dose response (AID 1421)). Settings: EP2-expressing cells, PGE2 EC50 shift by compound.
Sequence of Prostaglandin E2 receptor EP2 subtype (Homo sapiens) (P43116 whole entry, looked up): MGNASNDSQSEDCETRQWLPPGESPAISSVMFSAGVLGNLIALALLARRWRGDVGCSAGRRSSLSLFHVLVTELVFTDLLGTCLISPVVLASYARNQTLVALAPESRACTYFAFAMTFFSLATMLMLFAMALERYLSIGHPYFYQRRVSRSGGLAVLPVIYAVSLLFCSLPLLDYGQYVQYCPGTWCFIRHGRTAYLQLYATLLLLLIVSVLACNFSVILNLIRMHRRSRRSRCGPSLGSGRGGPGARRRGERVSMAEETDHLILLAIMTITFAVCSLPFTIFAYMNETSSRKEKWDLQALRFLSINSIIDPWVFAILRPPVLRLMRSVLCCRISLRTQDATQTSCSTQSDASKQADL
`CCc1nc(N2CCCCC2)c2oc3ccccc3c2n1` was tested, and the outcome was “active”.
In the case of `CCCn1c2ccccc2c2nc3ccccc3nc21`, the outcome is reported as “active”.

Same assay, conditions: EP2-expressing cells, PGE2 EC50 shift by compound; measured here: PGE2 EC50 at 6.7 uM compound
`COCC(=O)N(C)c1nnc(-c2cnc(C)cn2)s1` showed a PGE2 EC50 with compound of 1.36 nM.
For `C/C(CCc1oc2ccccc2c1-c1ccc(C)o1)=N/O`, the PGE2 EC50 with compound was 0.95 nM.
`CCc1nnc2n1N=C(c1ccc(-c3cc(Cl)ccc3Cl)o1)CS2` gave a PGE2 EC50 with compound of 0.89 nM.
`CCOC(=O)c1oc2ccccc2c1NC(=O)c1cccc(OC)c1OC` showed a PGE2 EC50 with compound of 0.98 nM.
`Nc1ccc(Br)cc1C(=O)c1ccccc1` was tested, and the PGE2 EC50 with compound was 0.43 nM.
Work on `COc1ccc(-c2noc(-c3ccccc3C(=O)Nc3cccnc3)n2)cc1` yielded a PGE2 EC50 with compound of 1.02 nM.
Work on `Cc1ccc2cccc(NC(=O)c3ccc(Br)o3)c2n1` yielded a PGE2 EC50 with compound of 0.83 nM.
`O=c1c2ccccc2c2ccccc2c(=O)n1Cc1ccco1` gave a PGE2 EC50 with compound of 1.09 nM.
For `Cc1ccc(C(=O)C2=C(O)C(=O)N(CCCn3ccnc3)C2c2ccc(OC(C)C)cc2)o1` (centres undefined), the PGE2 EC50 with compound was 1.01 nM.
For `CCOC(=O)C(CC)Sc1ncnc2c1nnn2-c1ccc(F)cc1` (centres undefined), the PGE2 EC50 with compound was 0.33 nM.
`O=c1cc(N2CCCCC2)c(-c2ccccc2)nn1Cc1ccccc1Cl` gave a PGE2 EC50 with compound of 0.65 nM.
`CCCCCOC(=O)c1[nH]c2c(c1C)C(=O)C(C(=O)OC)C(C)C2` (centres undefined) showed a PGE2 EC50 with compound of 2.63 nM.
Work on `CCCCN1C(=O)/C(=C2\SC(N3CCCCC3)=NC2=O)c2ccccc21` yielded a PGE2 EC50 with compound of 1.26 nM.
`CCN(CC)C(=O)Cn1cc(C(=O)C(=O)NCc2ccco2)c2ccccc21` was tested, and the PGE2 EC50 with compound was 1.55 nM.
In the case of `CCc1nc(N2CCCCC2)c2oc3ccccc3c2n1`, the PGE2 EC50 with compound is reported as 0.8 nM.
Compound `CCOC(=O)c1c(NC(=O)CN2C(=O)NC3(CCCCCC3)C2=O)sc(C)c1-c1ccc(C)cc1` has a PGE2 EC50 with compound of 0.76 nM.
`CCCn1c2ccccc2c2nc3ccccc3nc21` showed a PGE2 EC50 with compound of 1.21 nM.
